Assay results taken from patent US20250197382A1, “KIF18A INHIBITOR” (WIGEN BIOMEDICINE TECHNOLOGY (SHANGHAI) CO., LTD., priority 2022, published 2025).

target: Recombinant human KIF18A (1-467His-tagged) protein (Homo sapiens (Human), UniProt Q8NI77); assay: KIF18A enzyme assay (microtubule-stimulated ATPase activity, ADP-Glo); type: biochemical; conditions: 30 nM KIF18A, ATP 75 μM, read-out: inhibitory activity against KIF18A IC50
How it was run: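 Baculovirus-expressed human KIF18A (1-467, His-tagged; 30 nM) preincubated 15 min at room temperature with compound (22-point 2-fold series) in pH 7.5 Tris buffer containing 30 μg/mL pig microtubules and 1 μM paclitaxel.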

Sequence of Recombinant human KIF18A (1-467His-tagged) protein (Q8NI77 1-467): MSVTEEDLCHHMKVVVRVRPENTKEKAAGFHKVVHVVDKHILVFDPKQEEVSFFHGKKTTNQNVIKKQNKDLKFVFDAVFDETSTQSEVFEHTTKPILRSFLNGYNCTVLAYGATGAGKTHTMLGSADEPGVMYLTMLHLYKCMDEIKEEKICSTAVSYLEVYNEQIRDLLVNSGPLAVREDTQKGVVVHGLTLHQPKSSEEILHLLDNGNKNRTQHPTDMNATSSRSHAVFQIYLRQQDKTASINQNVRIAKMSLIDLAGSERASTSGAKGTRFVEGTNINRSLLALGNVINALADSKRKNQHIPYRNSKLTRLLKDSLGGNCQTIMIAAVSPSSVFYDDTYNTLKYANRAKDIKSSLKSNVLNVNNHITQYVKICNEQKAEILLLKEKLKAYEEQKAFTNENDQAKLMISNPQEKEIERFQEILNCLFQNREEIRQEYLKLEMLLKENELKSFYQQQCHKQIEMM
Sequence of Recombinant human KIF18A (1-467His-tagged) protein (P02550 whole entry partner): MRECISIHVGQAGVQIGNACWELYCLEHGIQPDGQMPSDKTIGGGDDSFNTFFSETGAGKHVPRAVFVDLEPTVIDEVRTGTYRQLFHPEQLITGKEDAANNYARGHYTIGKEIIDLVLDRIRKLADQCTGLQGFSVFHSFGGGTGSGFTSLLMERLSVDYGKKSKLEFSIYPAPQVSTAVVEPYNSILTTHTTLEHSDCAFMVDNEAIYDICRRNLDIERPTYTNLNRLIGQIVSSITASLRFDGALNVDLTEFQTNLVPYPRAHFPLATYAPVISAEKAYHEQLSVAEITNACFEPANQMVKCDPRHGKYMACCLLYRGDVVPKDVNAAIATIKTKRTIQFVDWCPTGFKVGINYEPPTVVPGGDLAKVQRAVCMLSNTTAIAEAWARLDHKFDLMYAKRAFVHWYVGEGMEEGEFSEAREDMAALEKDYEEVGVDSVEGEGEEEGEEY
Sequence of Recombinant human KIF18A (1-467His-tagged) protein (P02554 whole entry partner): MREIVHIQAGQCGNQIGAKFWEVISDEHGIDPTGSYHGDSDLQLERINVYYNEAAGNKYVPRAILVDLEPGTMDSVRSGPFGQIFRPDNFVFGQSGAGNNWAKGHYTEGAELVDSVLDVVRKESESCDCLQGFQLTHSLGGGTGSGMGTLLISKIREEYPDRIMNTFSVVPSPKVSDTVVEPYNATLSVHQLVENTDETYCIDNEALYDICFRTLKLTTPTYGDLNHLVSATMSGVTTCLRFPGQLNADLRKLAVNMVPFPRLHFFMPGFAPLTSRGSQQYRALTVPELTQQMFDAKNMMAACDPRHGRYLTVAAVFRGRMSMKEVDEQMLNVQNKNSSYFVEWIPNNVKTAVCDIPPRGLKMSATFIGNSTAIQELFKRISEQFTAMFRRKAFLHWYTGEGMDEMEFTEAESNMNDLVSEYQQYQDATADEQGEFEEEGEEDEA

Structure (SMILES)	IC50
C[C@@H]1CN(c2cc(NC(=O)c3ccc(NS(=O)(=O)[C@@H](C)CO)cc3N3CCC4(CC3)CC4)cc3c2OCC3)CCO1 [Compound 15]	≤ 100 nM
CN1CCc2cc(C(=O)Nc3ccc(NS(=O)(=O)CCO)cc3N3CCC4(CC3)CC4)nc(N3CC4CC4C3)c21 (stereo not shown) [Compound 362]	≤ 100 nM
CN1CCc2cc(NC(=O)c3ccc(NS(=O)(=O)CCO)cc3N3CCC4(CC3)CC4)cc(N3CC(F)(F)C3)c21 [Compound 260]	≤ 100 nM
C[C@H](CO)NS(=O)(=O)c1ccc(C(=O)Nc2cc3c(c(N4CCO[C@H](C)C4)n2)N(C)CC3)c(N2CCC3(CC2)CC3)c1 [Compound 352]	≤ 100 nM
O=C(Nc1cc2c(c(OC3CCC3)c1)OCC2)c1ccc(S(=O)(=O)NCCO)cc1N1CCC2(CC1)CC2 [Compound 23]	≤ 100 nM
C[C@H](CO)NS(=O)(=O)c1ccc(NC(=O)c2cc(N3CCC(F)(F)CC3)c3c(ccn3C)c2)c(N2CCC3(CC2)CC3)c1 [Compound 446]	≤ 100 nM
O=C(Nc1cc2ccoc2c(OCCC(F)(F)F)n1)c1ccc(NS(=O)(=O)CCO)cc1N1CCC2(CC1)CC2 [Compound 197]	≤ 100 nM
C[C@@H]1CN(c2cc(NC(=O)c3ccc(NS(=O)(=O)[C@H](C)CO)cc3N3CCC4(CC3)CC4)cc3ccn(C)c23)CCO1 [Compound 400]	≤ 100 nM
O=C(Nc1ccc(S(=O)(=O)NCCO)cc1N1CCC2(CC1)CC2)c1cc2c(c(N3CC(F)(F)C3)c1)OCC2 [Compound 52]	≤ 100 nM
CN1CCc2cc(C(=O)Nc3ccc(NS(=O)(=O)CCO)cc3N3CCC4(CC3)CC4)cc(N3CC(F)(F)C3)c21 [Compound 292]	≤ 100 nM
Cn1ccc2cc(C(=O)Nc3ccc(NS(=O)(=O)CCO)cc3N3CCC4(CC3)CC4)nc(N3CCC(C)(F)C3)c21 (stereo not shown) [Compound 488]	≤ 100 nM
Cn1ccc2cc(C(=O)Nc3ccc(S(=O)(=O)NCCO)cc3N3CCC4(CC3)CC4)nc(N3CCC(C)(F)C3)c21 (stereo not shown) [Compound 504]	≤ 100 nM
Cn1ccc2cc(NC(=O)c3ccc(S(=O)(=O)NCCO)cc3N3CCC4(CC3)CC4)cc(NC(C)(C)CO)c21 [Compound 411]	≤ 100 nM
C[C@@H]1CN(c2cc(C(=O)Nc3ccc(S(=O)(=O)N[C@@H](C)CO)cc3N3CCC4(CC3)CC4)cc3c2OCC3)CCO1 [Compound 63]	≤ 100 nM
C[C@@H]1CN(c2cc(NC(=O)c3ccc(NS(=O)(=O)[C@@H](C)CO)cc3N3CCC4(CC3)CC4)cc3ccn(C)c23)CCO1 [Compound 399]	≤ 100 nM
O=C(Nc1cc(N2CCC(F)(F)CC2)c2occc2c1)c1ccc(S(=O)(=O)NCCO)cc1N1CCC2(CC1)CC2 [Compound 145]	≤ 100 nM
C[C@@H]1CN(c2cc(C(=O)Nc3ccc(NS(=O)(=O)[C@H](C)CO)cc3N3CCC4(CC3)CC4)cc3c2OCC3)CCO1 [Compound 48]	≤ 100 nM
CN1CCc2cc(NC(=O)c3ccc(NS(=O)(=O)CCO)cc3N3CCC4(CC3)CC4)nc(OCCC(F)(F)F)c21 [Compound 325]	≤ 100 nM
O=C(Nc1ccc(S(=O)(=O)NCCO)cc1N1CCC2(CC1)CC2)c1cc2c(c(OC3CCC3)c1)OCC2 [Compound 55]	≤ 100 nM
C[C@@H]1CN(c2nc(C(=O)Nc3ccc(NS(=O)(=O)[C@H](C)CO)cc3N3CCC4(CC3)CC4)cc3ccn(C)c23)CCO1 [Compound 496]	≤ 100 nM
C[C@@H]1CN(c2cc(NC(=O)c3ccc(NS(=O)(=O)CCO)cc3N3CCC4(CC3)CC4)cc3c2N(C)CC3)CCO1 [Compound 258]	≤ 100 nM
C[C@H](CO)NS(=O)(=O)c1ccc(NC(=O)c2cc3c(c(N4CCO[C@H](C)C4)c2)N(C)CC3)c(N2CCC3(CC2)CC3)c1 [Compound 320]	≤ 100 nM
O=C(Nc1ccc(S(=O)(=O)NCCO)cc1N1CCC2(CC1)CC2)c1cc(N2CC(F)(F)C2)c2occc2c1 [Compound 180]	≤ 100 nM
O=C(Nc1cc(N2CCC(F)CC2)c2occc2c1)c1ccc(NS(=O)(=O)CCO)cc1N1CCC2(CC1)CC2 [Compound 137]	≤ 100 nM
O=C(Nc1cc2c(c(OC3CCC3)n1)OCC2)c1ccc(S(=O)(=O)NCCO)cc1N1CCC2(CC1)CC2 [Compound 87]	≤ 100 nM
C[C@H]1CN(c2cc(C(=O)Nc3ccc(NS(=O)(=O)CCO)cc3N3CCC4(CC3)CC4)cc3c2OCC3)CCO1 [Compound 35]	≤ 100 nM
Cn1ccc2cc(NC(=O)c3ccc(NS(=O)(=O)CCO)cc3N3CCC4(CC3)CC4)cc(N3CC4CC4C3)c21 (stereo not shown) [Compound 394]	≤ 100 nM
CN1CCc2cc(NC(=O)c3ccc(S(=O)(=O)NCCO)cc3N3CCC4(CC3)CC4)cc(N3CCC4(CC4)C3)c21 [Compound 278]	≤ 100 nM
C[C@@H]1CN(c2nc(NC(=O)c3ccc(NS(=O)(=O)[C@H](C)CO)cc3N3CCC4(CC3)CC4)cc3ccoc23)CCO1 [Compound 208]	≤ 100 nM
O=C(Nc1cc2c(c(N3CCC(F)(F)CC3)n1)OCCC2)c1ccc(S(=O)(=O)NCCO)cc1N1CCC2(CC1)CC2 [Compound 549]	≤ 100 nM

Other lines, results leading:

IC50	Structure (SMILES)
≤ 100 nM	C[C@@H]1CN(c2cc(C(=O)Nc3ccc(NS(=O)(=O)[C@@H](C)CO)cc3N3CCC4(CC3)CC4)cc3c2N(C)CC3)CCO1 [Compound 303]
≤ 100 nM	O=C(Nc1cc(N2CC3CC3C2)c2occc2c1)c1ccc(NS(=O)(=O)CCO)cc1N1CCC2(CC1)CC2 (stereo not shown) [Compound 138]
≤ 100 nM	C[C@@H]1CN(c2nc(NC(=O)c3ccc(NS(=O)(=O)[C@@H](C)CO)cc3N3CCC4(CC3)CC4)cc3c2N(C)CC3)CCO1 [Compound 335]
≤ 100 nM	O=C(Nc1cc2ccoc2c(N2CC(F)(F)C2)n1)c1ccc(NS(=O)(=O)CCO)cc1N1CCC2(CC1)CC2 [Compound 196]
≤ 100 nM	O=C(Nc1ccc(S(=O)(=O)NCCO)cc1N1CCC2(CC1)CC2)c1cc2c(c(N3CCOCC3)c1)OCC2 [Compound 60]
≤ 100 nM	O=C(Nc1ccc(S(=O)(=O)NCCO)cc1N1CCC2(CC1)CC2)c1cc(N2CCC3(CC3)C2)c2occc2c1 [Compound 182]
≤ 100 nM	O=C(Nc1ccc(NS(=O)(=O)CCO)cc1N1CCC2(CC1)CC2)c1cc(N2CCC(F)CC2)c2occc2c1 [Compound 169]
≤ 100 nM	C[C@@H](CO)S(=O)(=O)Nc1ccc(C(=O)Nc2cc(N3CCC(F)(F)CC3)c3c(ccn3C)c2)c(N2CCC3(CC2)CC3)c1 [Compound 397]
≤ 100 nM	C[C@@H]1CN(c2nc(C(=O)Nc3ccc(S(=O)(=O)NCCO)cc3N3CCC4(CC3)CC4)cc3ccn(C)c23)CCO1 [Compound 498]
≤ 100 nM	Cn1ccc2cc(C(=O)Nc3ccc(S(=O)(=O)NCCO)cc3N3CCC4(CC3)CC4)nc(N3CCOCC3)c21 [Compound 508]
≤ 100 nM	Cn1ccc2cc(C(=O)Nc3ccc(NS(=O)(=O)CCO)cc3N3CCC4(CC3)CC4)cc(N3CC4CC4C3)c21 (stereo not shown) [Compound 426]
≤ 100 nM	C[C@H](CO)NS(=O)(=O)c1ccc(NC(=O)c2cc3c(c(N4CCO[C@H](C)C4)n2)N(C)CC3)c(N2CCC3(CC2)CC3)c1 [Compound 384]
≤ 100 nM	O=C(Nc1ccc(S(=O)(=O)NCCO)cc1N1CCC2(CC1)CC2)c1cc2c(c(N3CCC(F)(F)CC3)c1)OCCC2 [Compound 547]
≤ 100 nM	C[C@H]1CN(c2nc(C(=O)Nc3ccc(NS(=O)(=O)CCO)cc3N3CCC4(CC3)CC4)cc3ccoc23)CCO1 [Compound 227]
≤ 100 nM	CN1CCc2cc(NC(=O)c3ccc(NS(=O)(=O)CCO)cc3N3CCC4(CC3)CC4)nc(N3CCC(C)(F)C3)c21 (stereo not shown) [Compound 328]
≤ 100 nM	O=C(Nc1cc(N2CCC(F)(F)CC2)c2[nH]cnc2c1)c1ccc(NS(=O)(=O)CCO)cc1N1CCC2(CC1)CC2 [Compound 525]
